In patent US8697407B2, “Compositions and methods for inhibiting MMSET” (The Regents of The University of Michigan, priority 2010, dated 2014):
Entries after “also recorded” stand apart in the source; their conditions may differ. Read-outs that look alike come from different tables or passages of the source.

Key:
[1] = test system: histone H3 methylation in DU145 cells; test: Immunoblot analyses of histone H3 methylation modifications; assay type: cell-based
Description: DU145 cells were incubated with multiple doses of small molecule inhibitors for 96 hours or were subjected to siRNA-mediated MMSET knockdown as described herein (e.g., using sh1 GGUCCAAAGUGUCGGGUUA or sh2 GUCAGUGGAGGAGCGGAA). Cells were homogenized in NP40 lysis buffer (50 mM Tris-HCl, 1% NP40, pH 7.4, Sigma, St. Louis, Mo.) with Complete proteinase inhibitor mixture (Roche, Indianapolis, Ind.). Ten micrograms of each protein extract were boiled in sample buffer, separated by SDS-PAGE, and transferred onto Polyvinylidene Difluoride membrane (GE Healthcare). The membrane was incubated for one hour in blocking buffer and incubated overnight at 4° C. with the following antibodies: anti-mono, di, and trimethylated H3-27, anti-di and trimethylated H3-k36, and anti-trimethylated H3-K9. Following a wash with TBS-T, the blot was incubated with horseradish peroxidase-conjugated secondary antibody. Signals were visualized by enhanced chemiluminescence as described by the manufacturer (GE Healthcare). The blots were re-probed with anti-H3 and β-actin for confirmation of equal loading.

DU145 cells [2] = test: WST-1 cell viability assay; assay type: cell-based
Description: In order to test the activity of MMSET inhibitors on cell viability, a WST-1 cell viability assay (Roche) was performed. The aggressive prostate cell line DU145 was treated with different doses of small molecules dissolved in DMSO for 96 hours before performing the WST-1 assay according to manufacturer's protocol. Each experiment was performed 8 times and absorbance was measured at 450 nm.

multiple cancers = test: Cell viability (FIGS. 11-26); assay type: cell-based
DU145 cells [3] = test: Basement membrane matrix invasion assay; assay type: cell-based; conditions: 48 hours
Description: DU145 cells were used for invasion assays. In some experiments, MMSET knockdown was performed by transfecting cells with two different MMSET-specific siRNAs. Forty-eight hours post-transfection, cells were seeded onto the basement membrane matrix (EC matrix, Chemicon, Temecula, Calif.) present in the insert of a 24-well culture plate. In some experiments, MMSET was inhibited using a small molecule inhibitor (MCTP39). Fetal bovine serum was added to the lower chamber as a chemoattractant with or without 2 doses of small molecule inhibitors. After 48 hours, the non-invading cells and EC matrix were gently removed with a cotton swab. Invasive cells located on the lower side of the chamber were measured colorimetrically by treating with 150 μl of 10% acetic acid and the absorbance measured at 560 nm using a spectrophotometer.

xenograft tumors = test: Xenograft tumors; conditions: in vivo
[4] = test system: translocation positive MM cell lines; test: Specificity in MM cell lines; assay type: cell-based

`NNc1nc2ccccc2nc1S` [MCTP39, 3-hydrazinylquinoxaline-2-thiol] was tested, and the H3K27 trimethylation [1] was “dose-dependent decreased”, the H3K36 dimethylation [1] was “dose-dependent decreased” and the H3K36 trimethylation [1] was “dose-dependent decreased”. The H3K27 dimethylation ([1]; 96 hours) was “dose-dependent decreased”, the H3K27 trimethylation ([1]; listed as N39) was “reduced” and the H3K36 dimethylation ([1]; listed as N39) was “reduced”. For the same compound, the H3K36 trimethylation ([1]; listed as N39) was “reduced”, the “proliferation of DU145 cells” value (DU145 cells [2]) was “affected proliferation and invasion of DU145 cells even at very low concentration” and the IC50 (DU145 cells [2]; Homo sapiens, DU-145, 96 hours, WST-1) was under 3000 nM. The cell viability (multiple cancers) was “decreased”, the “invasion of DU145 cells” value (DU145 cells [3]) was “affected proliferation and invasion of DU145 cells even at very low concentration” and the “tumor size / tumor volume in xenograft tumors” value (xenograft tumors) was “decreased; also recorded: reduces tumor volume”. The “specificity toward translocation positive MM cell lines” value [4] was “shows specificity toward translocation positive MM cell lines”.
